In patent US9302999B2, “Substituted triazoles as herbicides” (E. I. DU PONT DE NEMOURS AND COMPANY, priority 2012, dated 2016):

Legend:
Assay type in all cases: in vivo
[1] = system: barnyardgrass (Echinochloa crus-galli); assay: Test A pre-/postemergence: barnyardgrass
Outline: (§1)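 Each species received preemergence soil-directed spraying and, at the same time, postemergence treatment of seedlings 2–10 cm tall. Formulation: non-phytotoxic solvent mixture including surfactant. Response assessed visually about ten days on, relative to untreated controls, 0–100 scale.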

[2] = system: morningglory (Ipomoea spp.); assay: Test A pre-/postemergence: morningglory
Outline: as §1

[3] = system: pigweed (Amaranthus retroflexus); assay: Test A pre-/postemergence: pigweed
Outline: as §1

[4] = system: wheat (Triticum aestivum); assay: Test A pre-/postemergence: wheat
Outline: as §1

[5] = system: corn (Zea mays); assay: Test A pre-/postemergence: corn
Outline: as §1

[6] = system: blackgrass (Alopecurus myosuroides); assay: Test C pre-/postemergence: blackgrass
Outline: (§2)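 Visual injury scored 0–100 (100 = complete control) against untreated controls after 13–15 greenhouse days. Surfactant-containing solvent formulations applied either to soil after sowing (loam/sand) or over 1- to 4-leaf plants, 2–18 cm tall.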

[7] = system: ryegrass, Italian (Italian ryegrass, Lolium multiflorum); assay: Test C pre-/postemergence: ryegrass, Italian
Outline: as §2

[8] = system: winter wheat (Triticum aestivum); assay: Test C pre-/postemergence: winter wheat
Outline: as §2

[9] = system: foxtail, giant (giant foxtail, Setaria faberii); assay: Test C pre-/postemergence: foxtail, giant
Outline: as §2

[10] = system: morningglory (Ipomoea coccinea); assay: Test C pre-/postemergence: morningglory
Outline: as §2

[11] = system: nutsedge, yellow (yellow nutsedge, Cyperus esculentus); assay: Test C pre-/postemergence: nutsedge, yellow
Outline: as §2

[12] = Postemergence, 125 g ai/ha, 0 to 100 scale, 0 is no effect, 100 is complete control
[13] = Postemergence, 500 g ai/ha, 0 to 100 scale, 0 is no effect, 100 is complete control
[14] = Preemergence, 125 g ai/ha, 0 to 100 scale where 0 is no effect and 100 is complete control
[15] = Preemergence, 500 g ai/ha, 0 to 100 scale (0 no effect, 100 complete control)
[16] = Postemergence, 31 g ai/ha, scale 0 to 100 (0 no effect, 100 complete control)
[17] = Postemergence, 62 g ai/ha, scale 0 to 100 (0 no effect, 100 complete control)
[18] = Postemergence, 125 g ai/ha, scale 0 to 100, 0 no effect, 100 complete control
[19] = Postemergence, 250 g ai/ha, scale 0 to 100
[20] = Preemergence, 31 g ai/ha, scale 0 (no effect) to 100 (complete control)
[21] = Preemergence, 62 g ai/ha, scale of 0 to 100, 0 is no effect, 100 is complete control
[22] = Preemergence, 125 g ai/ha, scale 0 to 100, 0 no effect, 100 complete control
[23] = Preemergence, 250 g ai/ha, scale 0 to 100, 0 no effect, 100 complete control
[24] = Postemergence, 250 g ai/ha, scale 0 to 100 (0 no effect, 100 complete control)
[25] = Postemergence, 1000 g ai/ha, visual rating on 0 to 100 scale (0 no effect, 100 complete control), approximately ten days
[26] = Preemergence, 1000 g ai/ha, 0 to 100 scale, 0 is no effect, 100 is complete control
[27] = Postemergence, 16 g ai/ha, scale 0 to 100, 0 no effect, 100 complete control

## CCOc1nn(-c2ccc(F)cc2)nc1Cc1ccnc(C(F)F)c1 [Compound 195]
[1]; [12]
  Plant response rating, Barnyardgrass: 90
[1]; [13]
  Barnyardgrass plant response rating: 90
[1]; [14]
  Plant response rating, Barnyardgrass: 90
[1]; [15]
  Plant response rating, Barnyardgrass: 100
[2]; [12]
  Plant response rating, Morningglory: 80
[2]; [13]
  Morningglory plant response rating: 100
[2]; [14]
  Plant response rating, Morningglory: 50
[2]; [15]
  Plant response rating, Morningglory: 60
[3]; [12]
  Plant response rating, Pigweed: 100
[3]; [13]
  Pigweed plant response rating: 100
[3]; [14]
  Plant response rating, Pigweed: 100
[3]; [15]
  Plant response rating, Pigweed: 100
[4]; [12]
  Plant response rating, Wheat: 30
[4]; [13]
  Wheat plant response rating: 30
[4]; [14]
  Plant response rating, Wheat: 20
[4]; [15]
  Plant response rating, Wheat: 50
[5]; [12]
  Plant response rating, Corn: 30
[5]; [13]
  Corn plant response rating: 60
[5]; [14]
  Plant response rating, Corn: 20
[5]; [15]
  Plant response rating, Corn: 30
[6]; [16]
  Plant response rating, Blackgrass: 45
[6]; [17]
  Plant response rating, Blackgrass: 70
[6]; [18]
  Plant response rating, Blackgrass: 80
[6]; [19]
  Plant response rating, Blackgrass: 80
[6]; [20]
  Plant response rating, Blackgrass: 90
[6]; [21]
  Plant response rating, Blackgrass: 90
[6]; [22]
  Plant response rating, Blackgrass: 90
[6]; [23]
  Plant response rating, Blackgrass: 90
[7]; [16]
  Plant response rating, Ryegrass, Italian: 25
[7]; [17]
  Plant response rating, Ryegrass, Italian: 55
[7]; [18]
  Plant response rating, Ryegrass, Italian: 60
[7]; [24]
  Plant response rating, Ryegrass, Italian: 60
[7]; [20]
  Plant response rating, Ryegrass, Italian: 50
[7]; [21]
  Plant response rating, Ryegrass, Italian: 80
[7]; [22]
  Plant response rating, Ryegrass, Italian: 90
[7]; [23]
  Plant response rating, Ryegrass, Italian: 90
[8]; [16]
  Plant response rating, Wheat: 10
[8]; [17]
  Plant response rating, Wheat: 20
[8]; [18]
  Plant response rating, Wheat: 25
[8]; [24]
  Plant response rating, Wheat: 30
[8]; [20]
  Plant response rating, Wheat: 0
[8]; [21]
  Plant response rating, Wheat: 5
[8]; [22]
  Plant response rating, Wheat: 5
[8]; [23]
  Plant response rating, Wheat: 30
[9]; [16]
  Plant response rating, Foxtail, Giant: 35
[9]; [17]
  Plant response rating, Foxtail, Giant: 35
[9]; [18]
  Plant response rating, Foxtail, Giant: 75
[9]; [19]
  Plant response rating, Foxtail, Giant: 90
[9]; [20]
  Plant response rating, Foxtail, Giant: 98
[9]; [21]
  Plant response rating, Foxtail, Giant: 98
[9]; [22]
  Plant response rating, Foxtail, Giant: 100
[9]; [23]
  Plant response rating, Foxtail, Giant: 100
[10]; [16]
  Plant response rating, Morningglory: 65
[10]; [17]
  Plant response rating, Morningglory: 90
[10]; [18]
  Plant response rating, Morningglory: 90
[10]; [24]
  Plant response rating, Morningglory: 95
[10]; [20]
  Plant response rating, Morningglory: 30
[10]; [21]
  Plant response rating, Morningglory: 50
[10]; [22]
  Plant response rating, Morningglory: 75
[10]; [23]
  Plant response rating, Morningglory: 90
[11]; [16]
  Plant response rating, Nutsedge, Yellow: 10
[11]; [17]
  Plant response rating, Nutsedge, Yellow: 20
[11]; [18]
  Plant response rating, Nutsedge, Yellow: 25
[11]; [24]
  Plant response rating, Nutsedge, Yellow: 25
[11]; [20]
  Plant response rating, Nutsedge, Yellow: 0
[11]; [21]
  Plant response rating, Nutsedge, Yellow: 0
[11]; [22]
  Plant response rating, Nutsedge, Yellow: 5
[11]; [23]
  Plant response rating, Nutsedge, Yellow: 80

## Cc1nn(-c2ccc(C(F)(F)F)cc2)nc1Cc1cccc(C(F)(F)F)c1 [Compound 124]
[1]; [25]
  Barnyardgrass plant response rating: 70
[1]; [26]
  Barnyardgrass plant response rating: 90
[2]; [25]
  Morningglory plant response rating: 100
[2]; [26]
  Morningglory plant response rating: 40
[3]; [25]
  Pigweed plant response rating: 100
[3]; [26]
  Pigweed plant response rating: 100
[4]; [25]
  Wheat plant response rating: 40
[4]; [26]
  Wheat plant response rating: 0
[5]; [25]
  Corn plant response rating: 60
[5]; [26]
  Corn plant response rating: 10
[6]; [27]
  Plant response rating, Blackgrass: 0
[6]; [16]
  Plant response rating, Blackgrass: 35
[6]; [17]
  Plant response rating, Blackgrass: 50
[6]; [18]
  Plant response rating, Blackgrass: 85
[7]; [27]
  Plant response rating, Ryegrass, Italian: 5
[7]; [16]
  Plant response rating, Ryegrass, Italian: 15
[7]; [17]
  Plant response rating, Ryegrass, Italian: 35
[7]; [18]
  Plant response rating, Ryegrass, Italian: 65
[8]; [27]
  Plant response rating, Wheat: 5
[8]; [16]
  Plant response rating, Wheat: 10
[8]; [17]
  Plant response rating, Wheat: 15
[8]; [18]
  Plant response rating, Wheat: 20
[9]; [27]
  Plant response rating, Foxtail, Giant: 15
[9]; [16]
  Plant response rating, Foxtail, Giant: 15
[9]; [17]
  Plant response rating, Foxtail, Giant: 25
[9]; [18]
  Plant response rating, Foxtail, Giant: 45
[10]; [27]
  Plant response rating, Morningglory: 15
[10]; [16]
  Plant response rating, Morningglory: 15
[10]; [17]
  Plant response rating, Morningglory: 40
[10]; [18]
  Plant response rating, Morningglory: 40
[11]; [27]
  Plant response rating, Nutsedge, Yellow: 0
[11]; [16]
  Plant response rating, Nutsedge, Yellow: 0
[11]; [17]
  Plant response rating, Nutsedge, Yellow: 0
[11]; [18]
  Plant response rating, Nutsedge, Yellow: 0
